{
  "source": "patent US10746739B2",
  "about": "“Identification of novel diagnostics and therapeutics by modulating RhoH” (Leukemia Therapeutics, LLC, priority 2015, dated 2020)",
  "tested_on": "pre-existing HCL tumors (JOK-Luc)",
  "experiment": "Intraperitoneal JOK-Luc HCL xenograft treated with antibody, luminescence imaging",
  "assay_type": "in vivo",
  "details": "JOK-Luc injected into peritoneum of Hsd:Athymic Nude-Foxn1nu mice; antibody intraperitoneally at day 4 and day 6; imaged at day 7; compared with control IgG antibody",
  "experimental": "JOK-1 cells were stably transfected with the plasmid pGL4.5[Luc2/CMV/Neo] that contains the firefly luciferase gene under control of the constitutive gene promoter of cytomegalovirus. This luciferase cell line was then injected into the peritoneum of mice of the strain Hsd:Athymic Nude-Foxn1^nu. After 3 days, mice were subjected to whole body imaging following intravenous injection of D-Luciferin. Those mice where tumor was detected were intraperitoneally injected at day 4 and day 6 with the anti-CD38 antibody SAR650984 or an IgG control antibody. At day 7, mice were again imaged. Depicted are superimposed luminescence and X-ray images of three mice injected with SAR650984 (CD38) and three injected with the control antibody (Ctrl).\nExperiments performed with JOK-CD38-KO indicate that targeting CD38 expression in HCL may have therapeutic efficacy. This was tested using the parent of JOK-CD38-KO where CD38 expression remained intact. The parental line was engineered such that it constitutively produced luciferase and, therefore, could be visualized by luminescence in the presence of luciferin. […]\nThe role of CD38 in HCL was assessed using 5×10^6 of the cell line pools JOK-CD38-WT or JOK-CD38-KO injected subcutaneously into male or female mice that were 6-8 weeks old and of the strain NOD.Cg-Prkdc^scid IL2rγ^tm1Wj1/SzJ (Jackson Laboratory, Bar Harbor, Me., USA). […]",
  "data": [
    {"substance": "SAR650984: humanized anti-CD38 antibody SAR650984 (Sanofi Oncology)", "values": [
      {"measurement": "effect on pre-existing HCL tumors by luminescence imaging", "value": "tended to be reduced"}
    ]}
  ]
}
